Measurements reported in US6525001B1, “Substituted pyrimidine and pyridine herbicides” (Mid-American Commercialization Corporation, priority 1997, dated 2003).

What was measured:
Format in all cases: in vivo
Parameters in all cases: key: 0 is no effect; 10 is complete control
wild oat (Avena fatua) = assay: Test B pre-/postemergence; settings: for Plant response rating, Wild oats: Preemergence; for Wild oats plant response rating: Postemergence
Text: (§1) Seeds of bedstraw (Galium aparine), blackgrass (Alopecurus myosuroides), broadleaf signalgrass (Brachiaria decumbens), cocklebur (Xanthium strumarium), corn (Zea mays), crabgrass (Digitaria sanguinalis), giant foxtail (Setaria faberii), lambsquarters (Chenopodium album), momingglory (Ipomoea hederacea), pigweed (Amaranthus retroflexus), rape (Brassica napus), soybean (Glycine max), sugar beet (Beta vulgaris), velvetleaf (Abutilon theophrasti), wheat (Triticum aestivum), wild oat (Avena fatua) and purple nutsedge (Cyperus rotundus) tubers were planted and treated preemergence with test chemicals formulated in a non-phytotoxic solvent mixture which included a surfactant.
(§2) At the same time, these crop and weed species were also treated with postemergence applications of test chemicals formulated in the same manner. Plants ranged in height from 2 to 18 cm (1- to 4-leaf stage) for postemergence treatments. Plant species in the flood test consisted of rice (Oryza sativa), smallflower flatsedge (Cyperus difformis), duck salad (Heteranthera limosa) and bamyardgrass (Echinochloa crus-galli) grown to the 2-leaf stage for testing. Treated plants and controls were maintained in a greenhouse for twelve to sixteen days, after which all species were compared to controls and visually evaluated. Plant response ratings, summarized in Table B, are based on a scale of 0 to 10 where 0 is no effect and 10 is complete control. A dash (−) response means no test result.

[1] = test system: bedstraw (Galium aparine); assay: Test B pre-/postemergence; settings: Rate 125 g/ha, Preemergence
Text: as §1, §2

[2] = test system: velvetleaf (Abutilon theophrasti); assay: Test B pre-/postemergence; settings: for Velvetleaf plant response rating: Postemergence
Text: as §1, §2

[3] = test system: blackgrass (Alopecurus myosuroides); assay: Test B pre-/postemergence; settings: for Plant response rating, Blackgrass: Preemergence; for Blackgrass plant response rating: Postemergence
Text: as §1, §2

[4] = test system: giant foxtail (Setaria faberii); assay: Test B pre-/postemergence; settings: for Plant response rating, Giant foxtail: Preemergence; for Giant foxtail plant response rating: Postemergence
Text: as §1, §2

[5] = test system: broadleaf signalgrass (Brachiaria decumbens); assay: Test B pre-/postemergence
Text: as §1, §2

[6] = test system: cocklebur (Xanthium strumarium); assay: Test B pre-/postemergence; settings: for Cocklebur plant response rating: Postemergence
Text: as §1, §2

[7] = test system: momingglory (Ipomoea hederacea); assay: Test B pre-/postemergence; settings: for Plant response rating, Morningglory: Preemergence; for Morningglory plant response rating: Postemergence
Text: as §1, §2

[8] = test system: crabgrass (Digitaria sanguinalis); assay: Test B pre-/postemergence; settings: for Plant response rating, Crabgrass: Preemergence; for Crabgrass plant response rating: Postemergence
Text: as §1, §2

rape (Brassica napus) = assay: Test B pre-/postemergence; settings: for Plant response rating, Rape: Preemergence; for Rape plant response rating: Postemergence
Text: as §1, §2

corn (Zea mays) = assay: Test B pre-/postemergence; settings: for Plant response rating, Corn: Preemergence; for Corn plant response rating: Postemergence
Text: as §1, §2

[9] = test system: sugar beet (Beta vulgaris); assay: Test B pre-/postemergence; settings: for Plant response rating, Sugarbeets: Preemergence; for Sugarbeets plant response rating: Postemergence
Text: as §1, §2

[10] = test system: wheat (Triticum aestivum); assay: Test B pre-/postemergence; settings: for Plant response rating, Wheat: Preemergence; for Wheat plant response rating: Postemergence
Text: as §1, §2

[11] = test system: pigweed (Amaranthus retroflexus); assay: Test B pre-/postemergence; settings: for Plant response rating, Redroot pigweed: Preemergence; for Redroot pigweed plant response rating: Postemergence
Text: as §1, §2

soybean (Glycine max) = assay: Test B pre-/postemergence; settings: for Plant response rating, Soybean: Preemergence; for Soybean plant response rating: Postemergence
Text: as §1, §2

[12] = test system: smallflower flatsedge (Cyperus difformis); assay: Test B flood test
Procedure: as §2

[13] = test system: duck salad (Heteranthera limosa); assay: Test B flood test
Procedure: as §2

[14] = test system: bamyardgrass (Echinochloa crus-galli); assay: Test B flood test
Procedure: as §2

rice (Oryza sativa) = assay: Test B flood test
Procedure: as §2

[15] = Rate 62 g/ha, Postemergence (flood test)
[16] = Rate 125 g/ha, Postemergence section (flood test species)
[17] = Rate 250 g/ha, Postemergence (flood test species)

## CCc1cnc(-n2cnc(C(F)(F)F)c2)nc1C(=O)c1cccc(OC(F)(F)F)c1 [Compound 71]
Wild oat (Avena fatua); Rate 62 g/ha, scale of 0 to 10
  Plant response rating, Wild oats: 0
Wild oat (Avena fatua); Rate 62 g/ha
  Wild oats plant response rating: 2
Wild oat (Avena fatua); Rate 125 g/ha
  Wild oats plant response rating: 2
  Plant response rating, Wild oats: 3
[1]
  Plant response rating, Bedstraw: 1
[2]; Rate 62 g/ha
  Velvetleaf plant response rating: 3
[2]; Rate 125 g/ha
  Velvetleaf plant response rating: 6
[2]; Rate 125 g/ha, Preemergence
  Plant response rating, Velvetleaf: 6
[3]; Rate 62 g/ha, scale of 0 to 10
  Plant response rating, Blackgrass: 1
[3]; Rate 62 g/ha
  Blackgrass plant response rating: 2
[3]; Rate 125 g/ha
  Blackgrass plant response rating: 3
  Plant response rating, Blackgrass: 2
[4]; Rate 62 g/ha, scale of 0 to 10
  Plant response rating, Giant foxtail: 1
[4]; Rate 62 g/ha
  Giant foxtail plant response rating: 2
[4]; Rate 125 g/ha
  Giant foxtail plant response rating: 2
  Plant response rating, Giant foxtail: 2
[5]; Rate 62 g/ha, Postemergence
  B. signalgrass plant response rating: 2
[5]; Rate 62 g/ha, Preemergence
  B. signalgrass plant response rating: 0
[5]; Rate 125 g/ha, Postemergence
  B. signalgrass plant response rating: 2
[5]; Rate 125 g/ha, Preemergence
  Plant response rating, B. signalgrass: 2
[6]; Rate 62 g/ha
  Cocklebur plant response rating: 4
[6]; Rate 125 g/ha
  Cocklebur plant response rating: 4
[6]; Rate 125 g/ha, Preemergence
  Plant response rating, Cocklebur: 0
[7]; Rate 62 g/ha, scale of 0 to 10
  Plant response rating, Morningglory: 2
[7]; Rate 62 g/ha
  Morningglory plant response rating: 1
[7]; Rate 125 g/ha
  Morningglory plant response rating: 6
  Plant response rating, Morningglory: 4
[8]; Rate 62 g/ha, scale of 0 to 10
  Plant response rating, Crabgrass: 2
[8]; Rate 62 g/ha
  Crabgrass plant response rating: 2
[8]; Rate 125 g/ha
  Crabgrass plant response rating: 3
  Plant response rating, Crabgrass: 2
Rape (Brassica napus); Rate 62 g/ha, scale of 0 to 10
  Plant response rating, Rape: 2
Rape (Brassica napus); Rate 62 g/ha
  Rape plant response rating: 5
Rape (Brassica napus); Rate 125 g/ha
  Rape plant response rating: 7
  Plant response rating, Rape: 7
Corn (Zea mays); Rate 62 g/ha, scale of 0 to 10
  Plant response rating, Corn: 1
Corn (Zea mays); Rate 62 g/ha
  Corn plant response rating: 2
Corn (Zea mays); Rate 125 g/ha
  Corn plant response rating: 3
  Plant response rating, Corn: 1
[9]; Rate 62 g/ha, scale of 0 to 10
  Plant response rating, Sugarbeets: 2
[9]; Rate 62 g/ha
  Sugarbeets plant response rating: 8
[9]; Rate 125 g/ha
  Sugarbeets plant response rating: 8
  Plant response rating, Sugarbeets: 3
[10]; Rate 62 g/ha, scale of 0 to 10
  Plant response rating, Wheat: 1
[10]; Rate 62 g/ha
  Wheat plant response rating: 4
[10]; Rate 125 g/ha
  Wheat plant response rating: 4
  Plant response rating, Wheat: 3
[11]; Rate 62 g/ha, scale of 0 to 10
  Plant response rating, Redroot pigweed: 6
[11]; Rate 62 g/ha
  Redroot pigweed plant response rating: 8
[11]; Rate 125 g/ha
  Redroot pigweed plant response rating: 8
  Plant response rating, Redroot pigweed: 8
Soybean (Glycine max); Rate 62 g/ha, scale of 0 to 10
  Plant response rating, Soybean: 0
Soybean (Glycine max); Rate 62 g/ha
  Soybean plant response rating: 3
Soybean (Glycine max); Rate 125 g/ha
  Soybean plant response rating: 4
  Plant response rating, Soybean: 0
[12]; [15]
  S. Flatsedge plant response rating: 0
[12]; [16]
  S. Flatsedge plant response rating: 2
[12]; [17]
  Plant response rating, S. Flatsedge: 4
[13]; [15]
  Ducksalad plant response rating: 0
[13]; [16]
  Ducksalad plant response rating: 0
[13]; [17]
  Plant response rating, Ducksalad: 2
[14]; [15]
  Barnyardgrass plant response rating: 2
[14]; [16]
  Barnyardgrass plant response rating: 2
[14]; [17]
  Plant response rating, Barnyardgrass: 3
Rice (Oryza sativa); [15]
  Rice plant response rating: 2
Rice (Oryza sativa); [16]
  Rice plant response rating: 2
Rice (Oryza sativa); [17]
  Plant response rating, Rice: 2
